Source: ChEMBL document CHEMBL3286303, “Synthesis and in vitro antiproliferative evaluation of novel N-alkylated 6-isobutyl- and propyl pyrimidine derivatives” (Bioorg Med Chem Lett, 2014)
The source made the active and inactive calls. The rule behind the calls is not given here.

How the values were obtained:
[1] = tested on: MCF7; assay: Cell cycle arrest in human MCF7 cells as assessed as accumulation at G2/M phase at 0.1 uM after 24 hrs by propidium iodide staining-based flow cytometric analysis relative to control; type: functional
[2] = tested on: BJ; assay: Antiproliferative activity against human BJ cells after 72 hrs by PrestoBlue colorimetric assay; type: cell-based
[3] = tested on: SW-620; assay: Cell cycle arrest in human SW620 cells as assessed as accumulation at sub-G1 phase at 1 uM after 48 hrs by propidium iodide staining-based flow cytometric analysis relative to control; type: functional
[4] = tested on: WI-38; assay: Cell cycle arrest in human WI38 cells as assessed as accumulation at sub-G1 phase at 1 uM after 48 hrs by propidium iodide staining-based flow cytometric analysis relative to control; conditions: wi-38, 48 h
[5] = tested on: MCF7; assay: Cell cycle arrest in human MCF7 cells as assessed as accumulation at S phase at 1 uM after 24 hrs by propidium iodide staining-based flow cytometric analysis relative to control; type: functional
[6] = tested on: WI-38; assay: Cell cycle arrest in human WI38 cells as assessed as accumulation at G1 phase at 0.1 uM after 24 hrs by propidium iodide staining-based flow cytometric analysis relative to control; conditions: wi-38, 24 h
[7] = tested on: SW-620; assay: Antiadhesive activity against human SW620 cells at 5 uM after 2 to 24 hrs by crystal-violet staining-based microscopic analysis; type: functional, cell-based
[8] = tested on: K562; assay: Cell cycle arrest in human K562 cells as assessed as accumulation at sub-G1 phase at 0.5 uM after 24 hrs by propidium iodide staining-based flow cytometric analysis relative to control; type: functional
[9] = tested on: MCF7; assay: Cell cycle arrest in human MCF7 cells as assessed as accumulation at G2/M phase at 0.1 uM after 48 hrs by propidium iodide staining-based flow cytometric analysis relative to control; type: functional
[10] = tested on: HeLa; assay: Antiadhesive activity against human HeLa cells at 5 uM after 2 to 24 hrs by crystal-violet staining-based microscopic analysis; type: functional, cell-based

Activity [4]: 47.9%
Activity [6]: 61.7%
SMILES: COCn1c(CC(COCc2ccccc2)COCc2ccccc2)c(C)c(=O)n(COC)c1=O
Activity [1]: 7.1%
IC50 [2]: 5.3 µM
Activity [3]: 6.7%
Activity [5]: 8.1%
Activity [7]: Active
Activity [8]: 3.3%
Activity [9]: 9.5%
Activity [10]: Active
